From patent US20060264460A1 (Wyeth, priority 2005, published 2006)

Each compound was assayed against T1, human Cot/Tpl2 kinase (Homo sapiens, UniProt P41279) (assay: Tpl2/Cot kinase assay: GST-MEK1 phosphorylation detected by ELISA (DELFIA Eu)). Details: 0.4 nM Tpl2, 35 nM GST-MEK1, 50 uM ATP, 1 h at 30° C.
T1 construct: human Cot/Tpl2 kinase construct encoding residues 30-398; 6His (N); made in house; host or cells: Sf9 insect cells, baculovirus system (BD Biosciences)
Type: biochemical
Procedure, shortened: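 Substrate phosphorylation (GST-MEK1 Ser217/221) quantified by DELFIA europium ELISA, yielding IC50 values. Reaction: 1 h at 30° C, pH 7.2 MOPS buffer, 50 uM ATP, 35 nM GST-MEK1, 0.4 nM monomeric His-Tpl2 purified from Sf9 cells, compounds at 1% final DMSO; stopped with EDTA.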

T1 sequence (P41279 30-398): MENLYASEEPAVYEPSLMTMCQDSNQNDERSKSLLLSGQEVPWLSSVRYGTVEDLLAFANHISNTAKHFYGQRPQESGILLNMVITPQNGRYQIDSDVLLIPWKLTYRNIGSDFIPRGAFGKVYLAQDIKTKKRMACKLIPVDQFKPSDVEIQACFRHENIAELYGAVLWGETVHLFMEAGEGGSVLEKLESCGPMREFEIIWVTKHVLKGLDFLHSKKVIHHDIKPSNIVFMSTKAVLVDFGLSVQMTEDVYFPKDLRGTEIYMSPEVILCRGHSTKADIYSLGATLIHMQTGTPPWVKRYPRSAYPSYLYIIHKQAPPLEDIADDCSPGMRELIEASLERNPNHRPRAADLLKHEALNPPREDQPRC

SMILES | IC50 [nM]
C[C@@H](Nc1ccc2ncc(C#N)c(Nc3ccc(F)c(Cl)c3)c2c1)c1ccccn1 [Example 172, (R)-4-(3-chloro-4-fluorophenylamino)-6-(1-(pyridin-2-yl)ethylamino)quinoline-3-carbonitrile] | 84
C[C@H](Nc1ccc2ncc(C#N)c(Nc3ccc(F)c(Cl)c3)c2c1)c1ccccn1 [Example 173, (S)-4-(3-chloro-4-fluorophenylamino)-6-(1-(pyridin-2-yl)ethylamino)quinoline-3-carbonitrile] | > 40000
CCOC(=O)CNc1ccc2ncc(C#N)c(Nc3ccc(F)c(Cl)c3)c2c1 [Example 174, Ethyl 2-(4-(3-chloro-4-fluorophenylamino)-3-cyanoquinolin-6-ylamino)acetate] | 3500
N#Cc1cnc2ccc(NCC(=O)O)cc2c1Nc1ccc(F)c(Cl)c1 [Example 175, 2-(4-(3-chloro-4-fluorophenylamino)-3-cyanoquinolin-6-ylamino)acetic acid] | 310
N#Cc1cnc2ccc(NCC(N)=O)cc2c1Nc1ccc(F)c(Cl)c1 [Example 176, 2-(4-(3-chloro-4-fluorophenylamino)-3-cyanoquinolin-6-ylamino)acetamide] | 4300
CC(Nc1ccc2ncc(C#N)c(Nc3ccc(F)c(Cl)c3)c2c1)c1cnc[nH]1 (stereo not shown) [Example 179, 6-(1-(1H-imidazol-5-yl)ethylamino)-4-(3-chloro-4-fluorophenylamino)quinoline-3-carbonitrile] | 3900
CC(C)(C)S(=O)(=O)Nc1c(C#N)cnc2ccc(NCc3cnc[nH]3)cc12 [Example 180, N-(6-((1H-imidazol-5-yl)methylamino)-3-cyanoquinolin-4-yl)-2-methylpropane-2-sulfonamide] | > 40000
N#Cc1cnc2c(O)cc(NCc3cnc[nH]3)cc2c1Nc1ccc(F)c(Cl)c1 [Example 181, 6-((1H-imidazol-5-yl)methylamino)-4-(3-chloro-4-fluorophenylamino) 8-hydroxyquinoline-3-carbonitrile] | 11300
CS(=O)(=O)c1ccc(CNc2cc(Cl)c3ncc(C#N)c(Nc4ccc(F)c(Cl)c4)c3c2)cc1 [Example 184, 6-(4-(methylsulfonyl)benzylamino)-8-chloro-4-(3-chloro-4-fluorophenylamino)quinoline-3-carbonitrile] | 110
CS(=O)(=O)c1cccc(CNc2cc(Cl)c3ncc(C#N)c(Nc4ccc(F)c(Cl)c4)c3c2)c1 [Example 185, 6-(3-(methylsulfonyl)benzylamino)-8-chloro-4-(3-chloro-4-fluorophenylamino)quinoline-3-carbonitrile] | 47
N#Cc1cnc2c(Cl)cc(NCc3ccc(S(N)(=O)=O)cc3)cc2c1Nc1ccc(F)c(Cl)c1 [Example 186, 4-((8-chloro-4-(3-chloro-4-fluorophenylamino)-3-cyanoquinolin-6-ylamino)methyl)benzenesulfonamide] | 45
N#Cc1cnc2c(Cl)cc(NCc3cn4ccccc4n3)cc2c1Nc1ccc(F)c(Cl)c1 [Example 187, 6-((H-imidazo[1,2-a]pyridin-2-yl)methylamino)-8-chloro-4-(3-chloro-4-fluorophenylamino)quinoline-3-carbonitrile] | 130
CCc1nc(CNc2cc(Cl)c3ncc(C#N)c(Nc4ccc(F)c(Cl)c4)c3c2)cn1CC(N)=O [Example 193, 2-(4-((8-chloro-4-(3-chloro-4-fluorophenylamino)-3-cyanoquinolin-6-ylamino)methyl)-2-ethyl-1H-imidazol-1-yl)acetamide] | 410
CCc1nc(CNc2cc(Cl)c3ncc(C#N)c(Nc4ccc(F)c(Cl)c4)c3c2)c(C)n1C(=O)OC(C)(C)C [Example 194, tert-butyl 4-((8-chloro-4-(3-chloro-4-fluorophenylamino)-3-cyanoquinolin-6-ylamino)methyl)-2-ethyl-5-methyl-1H-imidazole-1-carboxylate] | 9700
N#Cc1cnc2c(Cl)cc(NCc3c(CCCO)ncn3COCc3ccccc3)cc2c1Nc1ccc(F)c(Cl)c1 [Example 198, 6-({[1-[(benzyloxy)methyl]-4-(3-hydroxypropyl)-1H-imidazol-5-yl]methyl}amino)-8-chloro-4-[(3-chloro-4-fluorophenyl)amino]quinoline-3-carbonitrile] | 870
CN(C)C=Nc1cc(Cl)c2ncc(C#N)c(Nc3ccc(F)c(Cl)c3)c2c1 [Example 206, N′-{8-chloro-4-[(3-chloro-4-fluorophenyl)amino]-3-cyanoquinolin-6-yl}-N,N-dimethylimidoformamide] | 7400

Further lines, results first:

IC50 [nM] | SMILES
10 | N#Cc1cnc2c(Cl)cc(NCc3cnc[nH]3)cc2c1Nc1ccc(F)c(Cl)c1 [Example 177, 6-((1H-imidazol-5-yl)methylamino)-8-chloro-4-(3-chloro-4-fluorophenylamino)quinoline-3-carbonitrile]
16 | N#Cc1cnc2c(Cl)cc(NCc3cccnc3)cc2c1Nc1ccc(F)c(Cl)c1 [Example 178, 8-chloro-4-(3-chloro-4-fluorophenylamino)-6-(pyridin-3-ylmethylamino)quinoline-3-carbonitrile]
18 | N#Cc1cnc2c(Cl)cc(NCc3cccc[n+]3[O-])cc2c1Nc1ccc(F)c(Cl)c1 [Example 182, 8-chloro-4-[(3-chloro-4-fluorophenyl)amino]-6-{[(1-oxidopyridin-2-yl)methyl]amino}quinoline-3-carbonitrile]
22 | Cc1c(CNc2cc(Cl)c3ncc(C#N)c(Nc4ccc(F)c(Cl)c4)c3c2)ncn1C [Example 183, 8-chloro-4-(3-chloro-4-fluorophenylamino)-6-((1,5-dimethyl-1H-imidazol-4-yl)methylamino)quinoline-3-carbonitrile]
59 | N#Cc1cnc2c(Cl)cc(NCc3cc4n(n3)CCO4)cc2c1Nc1ccc(F)c(Cl)c1 [Example 188, 8-chloro-4-(3-chloro-4-fluorophenylamino)-6-((2,3-dihydropyrazolo[5,1-b]oxazol-6-yl)methylamino)quinoline-3-carbonitrile]
100 | N#Cc1cnc2c(Cl)cc(NCc3cc4n(n3)CCC4)cc2c1Nc1ccc(F)c(Cl)c1 [Example 189, 8-chloro-4-(3-chloro-4-fluorophenylamino)-6-((5,6-dihydro-4H-pyrrolo[1,2-b]pyrazol-2-yl)methylamino)quinoline-3-carbonitrile]
320 | CCc1nc(CNc2cc(Cl)c3ncc(C#N)c(Nc4ccc(F)c(Cl)c4)c3c2)c(C)[nH]1 [Example 190, 8-chloro-4-(3-chloro-4-fluorophenylamino)-6-((2-ethyl-5-methyl-1H-imidazol-4-yl)methylamino)quinoline-3-carbonitrile]
64 | Cc1nc(CNc2cc(Cl)c3ncc(C#N)c(Nc4ccc(F)c(Cl)c4)c3c2)cn1CC(N)=O [Example 191, 2-(4-((8-chloro-4-(3-chloro-4-fluorophenylamino)-3-cyanoquinolin-6-ylamino)methyl)-2-methyl-1H-imidazol-1-yl)acetamide]
170 | Cc1cccc(CNc2cc(Cl)c3ncc(C#N)c(Nc4ccc(F)c(Cl)c4)c3c2)n1 [Example 192, 8-chloro-4-(3-chloro-4-fluorophenylamino)-6-((6-methylpyridin-2-yl)methylamino)quinoline-3-carbonitrile]
32 | Cc1cccc(CNc2cc(Cl)c3ncc(C#N)c(Nc4ccc(F)c(Cl)c4)c3c2)[n+]1[O-] [Example 195, 8-chloro-4-[(3-chloro-4-fluorophenyl)amino]-6-{[(6-methyl-1-oxidopyridin-2-yl)methyl]amino}quinoline-3-carbonitrile]
66 | Cc1ccc[n+]([O-])c1CNc1cc(Cl)c2ncc(C#N)c(Nc3ccc(F)c(Cl)c3)c2c1 [Example 196, 8-chloro-4-[(3-chloro-4-fluorophenyl)amino]-6-{[(3-methyl-1-oxidopyridin-2-yl)methyl]amino}quinoline-3-carbonitrile]
1400 | CCNc1cc(Cl)c2ncc(C#N)c(Nc3ccc(F)c(Cl)c3)c2c1 [Example 199, 8-chloro-4-[(3-chloro-4-fluorophenyl)amino]-6-(ethylamino)quinoline-3-carbonitrile]
68 | N#Cc1cnc2c(Cl)cc(NCCc3nnn[nH]3)cc2c1Nc1ccc(F)c(Cl)c1 [Example 200, 8-chloro-4-[(3-chloro-4-fluorophenyl)amino]-6-{[2-(1H-tetrazol-5-yl)ethyl]amino}quinoline-3-carbonitrile]
9.1 | Cn1cnc(CNc2cc(Cl)c3ncc(C#N)c(Nc4ccc(F)c(Cl)c4)c3c2)c1 [Example 201, 8-chloro-4-[(3-chloro-4-fluorophenyl)amino]-6-{[(1-methyl-1H-imidazol-4-yl)methyl]amino}quinoline-3-carbonitrile]
2600 | N#Cc1cnc2c(Cl)cc(NCC3=NCCN3)cc2c1Nc1ccc(F)c(Cl)c1 [Example 204, 8-chloro-4-[(3-chloro-4-fluorophenyl)amino]-6-[(4,5-dihydro-1H-imidazol-2-ylmethyl)amino]quinoline-3-carbonitrile]
3.2 | N#Cc1cnc2c(Cl)cc(NCc3[nH]cnc3CCCO)cc2c1Nc1ccc(F)c(Cl)c1 [Example 205, 8-chloro-4-[(3-chloro-4-fluorophenyl)amino]-6-({[4-(3-hydroxypropyl)-1H-imidazol-5-yl]methyl}amino)quinoline-3-carbonitrile]
1900 | N#Cc1cnc2c(Cl)cc(NCCN=[N+]=[N-])cc2c1Nc1ccc(F)c(Cl)c1 [Example 210, 6-[(2-azidoethyl)amino]-8-chloro-4-[(3-chloro-4-fluorophenyl)amino]quinoline-3-carbonitrile]
350 | N#Cc1cnc2c(Cl)cc(NCCn3ccnn3)cc2c1Nc1ccc(F)c(Cl)c1 [Example 211, 8-chloro-4-[(3-chloro-4-fluorophenyl)amino]-6-{[2-(1H-1,2,3-triazol-1-yl)ethyl]amino}quinoline-3-carbonitrile]
